Where a SMILES comes first, the peptide text is derived from it. Where no end group is shown, it is not given here. [ ]: non-standard residue; d: D form.

For series [1], the target named is T1, PSD-95-PDZ2 (Homo sapiens, UniProt P78352, V178C).
T1 construct: screened with the TAMRA labelled PSD-95-PDZ2-V178C domain; 7xHis (N); made in house
Description: SPOT peptide array screening with TAMRA labelled PSD-95-PDZ2. The series is classed as binding. In short, it runs like this: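 First, arrays were blocked 1 h and scanned to record background. Next, 50 nM labelled PDZ2-V178C in PBS pH 7.2 with 0.5% BSA bound for 1 h protected from light. Finally, after washes, 532 nm fluorescence was measured and background-corrected.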

For series [2], the target named is plasmin (Homo sapiens, UniProt P00747). Description: In vitro plasmin stability. The series is classed as in vitro ADME. The note with it: 100 μM ligand, PBS with plasmin (10 μg/mL), 37° C., 0 to 360 minutes, mean n=3. Here is the method:
The in vitro plasmin stability of peptides with SEQ ID NOs: 12, 68, 99 and 163 were determined by incubating 100 μM of ligand in phosphate buffered saline (PBS) supplemented with plasmin (10 μg/mL) at 37° C. for 0 to 360 minutes. At selected time points during the incubation, the ligands were extracted from 80 μL of assay matrix by treatment with 80 μL of 50% acetonitrile (ACN). The samples were filtered and analysed by UPLC to determine the amount of ligand remaining. LC-MS analysis was performed to confirm ligand integrity and identify cleavage sites.

Series [3] concerns the target T2, PSD-95-PDZ2 (Homo sapiens, UniProt P78352).
T2 construct: 7xHis (N); made in house; host or cells: Escherichia coli B21 pLys (for the mutants, 'as previously described')
Description: Fluorescence polarization (FP) competition assay against cyclic nNOS TAMRA probe. The series is classed as binding. The note with it: for Ki: FP competition, cyclic nNOS TAMRA probe, mean of triplicates, N.B. = not binding, read-out: Ki. On the technique in general: In fluorescence polarisation assays a small probe gives low polarisation when free and higher when bound to something large.

In series [4] the target is T2, PSD-95-PDZ2. As to the kind of experiment: Isothermal titration calorimetry (ITC). The series is classed as binding. Background: ITC needs no label: the signal is the heat of the interaction.
Description: Isothermal titration calorimetry (ITC). The ITC assays were performed in NaPi 50 nM, 50 nM NaCl, pH 7.2 buffer filtered with a Corning® bottle-top vacuum filter system of a pore size of 0.22 μM, that was used to dissolve the peptides. Proteins were dialyzed against this buffer using Amicon® Ultra-15 centrifugal filter units, with a MWCO 3000 Da.
This assay was performed on an ITC200. The instrument differential power (DP) was set to 10 and the syringe rotating speed to 600 RPM. The assay setup consisted of introducing the protein inside the cell and the peptide (titrant) on the syringe. Calorimetry was performed at 25° C. Each analysis was performed in triplicates. Furthermore, several runs of peptide into buffer were performed in order to remove injection residual heat. Runs were analyzed with Origin 7.0 software (OriginLab).
The mark [5] stands for this setting: plasmin (10 μg/mL) in phosphate buffered saline.

Chain of plasmin (P00747 581-810 limits assumed, species assumed): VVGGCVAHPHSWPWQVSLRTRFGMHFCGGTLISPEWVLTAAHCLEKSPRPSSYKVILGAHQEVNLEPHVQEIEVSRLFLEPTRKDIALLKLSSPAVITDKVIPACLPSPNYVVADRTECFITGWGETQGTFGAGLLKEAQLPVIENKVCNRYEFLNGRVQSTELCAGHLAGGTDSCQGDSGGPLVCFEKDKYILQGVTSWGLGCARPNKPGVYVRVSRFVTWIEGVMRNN
Chain of plasmin (P00747 97-580 partner limits assumed, species assumed): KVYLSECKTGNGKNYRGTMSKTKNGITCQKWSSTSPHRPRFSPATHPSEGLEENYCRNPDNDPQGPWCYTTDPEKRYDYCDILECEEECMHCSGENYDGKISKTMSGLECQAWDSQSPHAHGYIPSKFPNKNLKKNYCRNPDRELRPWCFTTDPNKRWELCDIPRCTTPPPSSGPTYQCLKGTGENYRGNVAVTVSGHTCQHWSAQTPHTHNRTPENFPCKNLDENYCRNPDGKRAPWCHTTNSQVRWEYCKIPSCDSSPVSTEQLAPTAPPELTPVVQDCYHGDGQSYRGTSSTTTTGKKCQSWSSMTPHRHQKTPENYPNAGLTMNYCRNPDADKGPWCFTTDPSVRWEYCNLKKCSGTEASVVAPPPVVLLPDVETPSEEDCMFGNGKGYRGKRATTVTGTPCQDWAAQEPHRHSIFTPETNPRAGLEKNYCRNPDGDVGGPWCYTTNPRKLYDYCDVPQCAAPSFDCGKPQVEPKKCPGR

As to `CC[C@H](C)[C@@H]1NC(=O)[C@H]([C@@H](C)O)NC(=O)[C@H](C)NC(=O)[C@@H]2CCCN2C(=O)[C@H]([C@@H](C)O)NC(=O)CNC(=O)[C@H](CC(=O)O)NC(=O)CNC(=O)[C@H]([C@@H](C)O)NC(=O)[C@H](Cc2ccccc2)NC(=O)[C@H]([C@@H](C)O)NC(=O)[C@H]([C@@H](C)O)NC(=O)[C@H](CCC(=O)O)NC(=O)[C@H](CC(C)C)NC(=O)[C@H](Cc2c[nH]cn2)NC(=O)[C@H]([C@@H](C)O)NC(=O)[C@H](CCC(N)=O)NC(=O)CNC(=O)[C@H]2CCCN2C(=O)[C@H](CCC(N)=O)NC(=O)[C@H]([C@@H](C)O)NC(=O)[C@H](C(C)C)NC(=O)[C@H](CCCNC(=N)N)NC1=O` [compound 68] (cyclo(THLETTFTGDGTPATIRVTQ[dP]GQ)), in series [1] (SPOT array, TAMRA labelled PSD-95-PDZ2-V178C, normalized to WT), the “Normalized SPOT fluorescence (Mut/WT)” value was determined as 0.39. Besides, the half-life at 100 μM in series [2] (setting [5]) was 6 h. Besides, the Ki in series [3] stood at 1430 nM. For the same compound, in series [3] (FP inhibition constant normalized to WT value), the “Relative Ki (Ki mut/Ki WT)” value came to 0.95.
For “THLETTFTGDGTPKTIRVTQpGQE (THLETTFTGDGTPKTIRVTQ[dP]GQE) [SEQ ID NO: 137]”, the “affinity (Kd) by ITC” value in series [4] (25° C., tested up to 100 μM) is on record as “did not show binding”.
Consider `CC[C@H](C)[C@@H]1NC(=O)[C@H]([C@@H](C)O)NC(=O)[C@H](CCCCN)NC(=O)[C@@H]2CCCN2C(=O)[C@H](CCC(=O)O)NC(=O)CNC(=O)[C@H](CC(=O)O)NC(=O)CNC(=O)[C@H](Cc2c[nH]c3ccccc23)NC(=O)[C@H](Cc2ccccc2)NC(=O)[C@H]([C@@H](C)O)NC(=O)[C@H]([C@@H](C)O)NC(=O)[C@H](CCC(=O)O)NC(=O)[C@H](CC(C)C)NC(=O)[C@H](Cc2c[nH]cn2)NC(=O)[C@H]([C@@H](C)O)NC(=O)[C@H](CCC(N)=O)NC(=O)CNC(=O)[C@H]2CCCN2C(=O)[C@H](CCC(N)=O)NC(=O)[C@H]([C@@H](C)O)NC(=O)[C@H](C(C)C)NC(=O)[C@H](CCCNC(=N)N)NC1=O` [compound 14] (cyclo(THLETTFWGDGEPKTIRVTQ[dP]GQ)), for which, in series [4] (ITC, 25° C.), the ΔH was -7.208 ± 0.8381 kcal/mol and the “−ΔS*T” value is -2.1487 ± 0.759 kcal/mol. In series [4] (ITC, 25° C., read-out: Kd), the equilibrium dissociation constant (Kd) was 139 ± 18.2 nM. In series [1] (non-proteogenic AA scan, Hit1(T112W T116E) peptide scaffold, SPOT array incubated with TAMRA-labelled PSD-95-PDZ2, average of Pep. 1-3), the “Average (fluorescence raw data)” value was 10.70 10^6. Moreover, the “Fluor. Pep. 1 (fluorescence raw data)” value in series [1] (non-proteogenic AA scan, Hit1(T112W T116E) peptide scaffold, SPOT array incubated with TAMRA-labelled PSD-95-PDZ2, replicate peptide 1) was 9.88 10^6. The “Fluor. Pep. 2 (fluorescence raw data)” value in series [1] (non-proteogenic AA scan, Hit1(T112W T116E) peptide scaffold, SPOT array incubated with TAMRA-labelled PSD-95-PDZ2, replicate peptide 2) is recorded as 12.86 10^6. Moreover, the “Fluor. Pep. 3 (fluorescence raw data)” value in series [1] (non-proteogenic AA scan, Hit1(T112W T116E) peptide scaffold, SPOT array incubated with TAMRA-labelled PSD-95-PDZ2, replicate peptide 3) is recorded as 9.36 10^6. Moreover, the Ki in series [3] was determined as 110 nM.
For the compound `CC[C@H](C)[C@@H]1NC(=O)[C@H]([C@@H](C)O)NC(=O)[C@H](CCCCN)NC(=O)[C@@H]2CCCN2C(=O)[C@H]([C@@H](C)O)NC(=O)CNC(=O)[C@H](CC(=O)O)NC(=O)CNC(=O)[C@H](Cc2c[nH]c3ccccc23)NC(=O)[C@H](Cc2ccccc2)NC(=O)[C@H]([C@@H](C)O)NC(=O)[C@H]([C@@H](C)O)NC(=O)[C@H](CCC(=O)O)NC(=O)[C@H](CC(C)C)NC(=O)[C@H](Cc2c[nH]cn2)NC(=O)[C@H]([C@@H](C)O)NC(=O)[C@H](CCC(N)=O)NC(=O)CNC(=O)[C@H]2CCCN2C(=O)[C@H](CCC(N)=O)NC(=O)[C@H]([C@@H](C)O)NC(=O)[C@H](C(C)C)NC(=O)[C@H](CCCNC(=N)N)NC1=O` [compound 163] (cyclo(THLETTFWGDGTPKTIRVTQ[dP]GQ)), in series [2] (plasmin (isolated protease, 10 μg/mL) in PBS), the half-life at 100 μM amounted to 1.4 h.
As to `CC[C@H](C)[C@@H]1NC(=O)[C@H]([C@@H](C)O)NC(=O)[C@H](CCCCN)NC(=O)[C@@H]2CCCN2C(=O)[C@H]([C@@H](C)O)NC(=O)CNC(=O)[C@H](CC(=O)O)NC(=O)CNC(=O)[C@H]([C@@H](C)O)NC(=O)[C@H](Cc2ccccc2)NC(=O)[C@H]([C@@H](C)O)NC(=O)[C@H]([C@@H](C)O)NC(=O)[C@H](CCC(=O)O)NC(=O)[C@H](CC(C)C)NC(=O)[C@H](Cc2c[nH]cn2)NC(=O)[C@H]([C@@H](C)O)NC(=O)[C@H](CCC(N)=O)NC(=O)CNC(=O)[C@H]2CCCN2C(=O)[C@H](CCC(N)=O)NC(=O)[C@H]([C@@H](C)O)NC(=O)[C@H](C(C)C)NC(=O)[C@H](CCCNC(=N)N)NC1=O` [compound 12], in series [4] (ITC, 25° C.), the ΔH was -7.7418 ± 0.6837 kcal/mol and the “−ΔS*T” value turned out to be 0.3499 ± 0.3084 kcal/mol. This compound also registered a half-life at 100 μM in series [2] (setting [5]) of 1.18 h.
Consider `CC[C@H](C)[C@@H]1NC(=O)[C@H]([C@@H](C)O)NC(=O)[C@H](CCCCN)NC(=O)[C@@H]2CCCN2C(=O)[C@H](CCC(=O)O)NC(=O)CNC(=O)[C@H](CC(=O)O)NC(=O)CNC(=O)[C@H](Cc2c[nH]c3ccccc23)NC(=O)[C@H](Cc2ccccc2)NC(=O)[C@H]([C@@H](C)O)NC(=O)[C@H]([C@@H](C)O)NC(=O)[C@H](CCC(=O)O)NC(=O)[C@H](CC(C)C)NC(=O)[C@H](Cc2cncn2C)NC(=O)[C@H]([C@@H](C)O)NC(=O)[C@H](CCC(N)=O)NC(=O)CNC(=O)[C@H]2CCCN2C(=O)[C@H](CCC(N)=O)NC(=O)[C@H]([C@@H](C)O)NC(=O)[C@H](C(C)C)NC(=O)[C@H](CCCNC(=N)N)NC1=O` [compound 16], for which, in series [4] (ITC, 25° C.), the ΔH was -6.6378 ± 0.1229 kcal/mol and the “−ΔS*T” value is -3.6598 ± 0.239 kcal/mol.
Take `CC[C@H](C)[C@@H]1NC(=O)[C@H]([C@@H](C)O)NC(=O)[C@H](CCCCN)NC(=O)[C@@H]2CCCN2C(=O)[C@H]([C@@H](C)O)NC(=O)CNC(=O)[C@H](CC(=O)O)NC(=O)CNC(=O)[C@H]([C@@H](C)O)NC(=O)[C@H](Cc2ccccc2)NC(=O)[C@H]([C@@H](C)O)NC(=O)[C@H]([C@@H](C)O)NC(=O)[C@H](CCC(=O)O)NC(=O)[C@H](CC(C)C)NC(=O)[C@H](Cc2c[nH]cn2)NC(=O)[C@H]([C@@H](C)O)NC(=O)[C@H](CCC(N)=O)NC(=O)CNC(=O)[C@H]2CCCN2C(=O)[C@H](CCC(N)=O)NC(=O)[C@H]([C@@H](C)O)NC(=O)[C@H](C(C)C)NC(=O)[C@H](CCCNC(=N)N)N(C)C1=O` [compound 99]: the half-life at 100 μM in series [2] (setting [5]) turned out to be 2.83 h. Moreover, in series [3], the Ki is 990 nM.
For the compound `CC[C@H](C)[C@@H]1NC(=O)[C@H]([C@@H](C)O)NC(=O)[C@H](CCCCN)NC(=O)[C@@H]2CCCN2C(=O)[C@H](CCC(=O)O)NC(=O)CNC(=O)[C@H](CC(=O)O)NC(=O)CNC(=O)[C@H](Cc2c[nH]c3ccccc23)NC(=O)[C@H](Cc2ccccc2)NC(=O)[C@H]([C@@H](C)O)NC(=O)[C@H]([C@@H](C)O)NC(=O)[C@H](CCC(=O)O)NC(=O)[C@H](CC(C)C)NC(=O)[C@H](Cc2c[nH]cn2)NC(=O)[C@H]([C@@H](C)O)NC(=O)[C@H](CCC(N)=O)NC(=O)CNC(=O)[C@H]2CCCN2C(=O)[C@H](CCC(N)=O)NC(=O)[C@H]([C@@H](C)O)NC(=O)[C@H](C(C)C)NC(=O)[C@H](CCCNC(=N)N)NC1=O` [SEQ ID NO: 14] (cyclo(THLETTFWGDGEPKTIRVTQ[dP]GQ)), in series [4] (ITC Kd), the “fold improved binding affinity compared to the wild-type peptide” value amounted to 16 fold.

As a reminder, the half-life is the time needed for the level to fall by half in the phase considered. Low values mean fast loss, high ones slow loss. The Ki is the equilibrium dissociation constant of an inhibitor or competing ligand from its target. Broadly, the Kd is the constant that tells how readily two partners part at equilibrium.

(Values after patent US20230220021A1, “CYCLIC PEPTIDE INHIBITORS OF PSD-95 AND USES THEREOF” (University of Copenhagen, priority 2020, published 2023).)
